Results as given in patent publication US5830434A, “Methods of treating non-insulin dependent diabetes mellitus with pancreatic polypeptide” (Medical University of South Carolina Foundation for …, priority 1997, dated 1998).

Legend:
[1] = tested on: G proteins migrating at 41 kDa in liver plasma membranes; experiment: Receptor dependent labeling of hepatocyte G proteins with AA-[32P]GTP; format: biochemical
Procedure: Receptor dependent labeling of hepatocyte G proteins with 4-Azidoanilido-α[^32 P]GTP. The protocol for labeling G proteins with AA-GTP was as described previously (11). The AA-[32P]-GTP used in the labeling experiments was prepared according to the protocol of Offermans et al. (6,7).
The purpose of these labeling studies was to determine whether PP stimulated the binding of AA-[^32 P]GTP to proteins migrating at the known molecular weight of G proteins in liver plasma membranes. […] Incubation of liver plasma membranes with 1 μM angiotensin II produced a two-fold increase in labeling of G protein(s) migrating at 41 kDa on SDS PAGE gels The 41 kDa band represents the pertussis-sensitive G protein family that is expressed in hepatocytes and which couples to angiotensin II receptors.

Gs α = experiment: Western blot assay of Gs α in liver plasma membranes; format: in vivo, Zucker rat; settings: PP 200 μg/day/kg s.c. five days
Procedure: (§1) Experimental Animal Protocol. Lean (+/?) and fatty (fa/fa) Zucker rats were obtained from Harlan Labs at seven weeks of age and randomly assigned to two groups within each phenotype. One group was injected subcutaneously with PP (Peninsula Labs (Belmont, Calif.) (200 μg/day/kg body weight) in a vehicle of physiological saline (0.9% w/v) while the other group was injected with only vehicle. The two groups within each phenotype received their respective treatments for five days, after which the animals were weighed and sacrificed following an overnight fast. Blood samples were obtained from each animal for assays of plasma glucose and insulin according to standard methods known in the art (3) and the pancreas was removed and subjected to an acid-ethanol extraction (0.1N HCl, 70% ethanol) as described previously for assay of pancreatic insulin (3). […]
Purified liver plasma membranes were solubilized on ice for one hour in 20 mM Tris, 1 mM EDTA, 1 mM DTT, 100 mM NaCl and 0.9% sodium cholate (pH 8.0). […] Following the procedure of Mumby (20), the PVDF membranes were probed with Gs α IgG and the bands were detected with ^125 I-labeled goat anti-rabbit IgG (1.0×10^6 cpm/ml). […]
In performing the Western blot assays, protein was carefully measured in the liver plasma membrane supernatant to assure that equal amounts of soluble membrane protein would be loaded from the respective treatment groups.

adenylyl cyclase = experiment: Adenylyl cyclase assay in liver plasma membranes; format: biochemical, Zucker rat; settings: for effect of PP treatment on efficacy of glucagon in activating adenylyl cyclase: PP 200 μg/day/kg s.c. five days
Procedure: Lean (+/?) and fatty (fa/fa) Zucker rats were obtained from Harlan Labs at seven weeks of age and randomly assigned to two groups within each phenotype. One group was injected subcutaneously with PP (Peninsula Labs (Belmont, Calif.) (200 μg/day/kg body weight) in a vehicle of physiological saline (0.9% w/v) while the other group was injected with only vehicle. The two groups within each phenotype received their respective treatments for five days, after which the animals were weighed and sacrificed following an overnight fast. Blood samples were obtained from each animal for assays of plasma glucose and insulin according to standard methods known in the art (3) and the pancreas was removed and subjected to an acid-ethanol extraction (0.1N HCl, 70% ethanol) as described previously for assay of pancreatic insulin (3). Livers were removed into ice cold balanced salt solution. After cooling, each liver was cleaned of connective tissue and minced into 2-4 mm pieces with scissors in 5 ml of ice-cold homogenizing buffer (50 mM Hepes, pH 6.5, 5 mM EDTA, 3 mM orthophenanthroline, 0.2 μM iodoacetic acid, 1 mM PMSF, 25 μm leupeptin (3). The minced liver was homogenized in a 40 ml Dounce homogenizer in 25 ml of homogenizing buffer with 25 strokes of the loose pestle and three strokes of the tight pestle. The homogenate was centrifuged for five minutes at 3000×g. The supernatant was removed and centrifuged for 20 min at 16,000×g. The resulting pellet was retained, resuspended in phosphate buffered saline (PBS) containing 5 mM MgCl2 and homogenized with five strokes of the Dounce homogenizer. After centrifuging for 20 min at 16,000×g, the membrane pellet was resuspended in homogenizing buffer containing 0.1% bovine serum albumin (BSA). Aliquots were frozen in liquid nitrogen and stored at -80° C.
Adenylyl cyclase activity leading to the production of cAMP was determined in liver plasma membranes by methods previously described (2, 4). […] Cyclic AMP formed in the reaction was measured in the supernatant by radioimmunoassay according to methods described previously (2, 4). […]

glucagon receptor [2] = target: T1, glucagon receptor (Rattus norvegicus, UniProt P30082); experiment: Glucagon saturation binding in liver plasma membranes; design: species or system Zucker rat
T1 construct: from tissue; host or cells: liver plasma membranes of lean and fatty (fa/fa) Zucker rats
T1 sequence (P30082 27-485): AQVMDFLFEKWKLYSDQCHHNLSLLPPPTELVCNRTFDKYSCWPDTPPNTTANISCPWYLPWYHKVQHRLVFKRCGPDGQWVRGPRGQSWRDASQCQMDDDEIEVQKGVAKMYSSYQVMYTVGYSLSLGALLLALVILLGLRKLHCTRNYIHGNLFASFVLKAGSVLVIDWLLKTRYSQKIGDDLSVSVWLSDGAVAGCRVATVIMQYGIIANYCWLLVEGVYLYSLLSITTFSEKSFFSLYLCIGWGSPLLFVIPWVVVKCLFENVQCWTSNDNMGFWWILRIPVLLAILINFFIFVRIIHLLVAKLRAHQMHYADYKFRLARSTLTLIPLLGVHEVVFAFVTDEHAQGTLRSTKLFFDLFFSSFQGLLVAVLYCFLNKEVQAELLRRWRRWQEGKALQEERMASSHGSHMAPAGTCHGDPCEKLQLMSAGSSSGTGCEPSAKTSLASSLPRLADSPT
Procedure: as §1, with “(3). Livers were removed into ice cold balanced salt solution.” for “(3).”
Binding curves were analyzed using nonlinear least squares.

glucagon receptor [3] = target: T1, glucagon receptor; experiment: Glucagon competition binding in liver plasma membranes (50 pM labeled glucagon, with and without GTP); design: species or system Zucker rat
Procedure: Experimental Animal Protocol. Lean (+/?) and fatty (fa/fa) Zucker rats were obtained from Harlan Labs at seven weeks of age and randomly assigned to two groups within each phenotype. One group was injected subcutaneously with PP (Peninsula Labs (Belmont, Calif.) (200 μg/day/kg body weight) in a vehicle of physiological saline (0.9% w/v) while the other group was injected with only vehicle. The two groups within each phenotype received their respective treatments for five days, after which the animals were weighed and sacrificed following an overnight fast. Blood samples were obtained from each animal for assays of plasma glucose and insulin according to standard methods known in the art (3) and the pancreas was removed and subjected to an acid-ethanol extraction (0.1N HCl, 70% ethanol) as described previously for assay of pancreatic insulin (3). Livers were removed into ice cold balanced salt solution. […]

## angiotensin II (DRVYIHPF; Angiotensin-2; UniProt P01019 25-32, looked up) [positive control that couples to pertussis-sensitive G proteins, reference compound]
[1]; 1 μM
  increase in AA-[32P]GTP labeling of G protein(s) migrating at 41 kDa: two-fold

## CC[C@H](C)[C@H](NC(=O)[C@H](Cc1ccc(O)cc1)NC(=O)[C@H](CCCNC(=N)N)NC(=O)[C@H](CCCNC(=N)N)NC(=O)[C@H](CC(C)C)NC(=O)[C@H](CC(=O)O)NC(=O)[C@H](C)NC(=O)[C@H](C)NC(=O)[C@H](Cc1ccc(O)cc1)NC(=O)[C@H](CCC(N)=O)NC(=O)[C@H](C)NC(=O)[C@H](CCSC)NC(=O)[C@H](CCC(N)=O)NC(=O)[C@H](CCC(=O)O)NC(=O)[C@@H]1CCCN1C(=O)[C@@H](NC(=O)[C@H](C)NC(=O)[C@H](CC(N)=O)NC(=O)[C@H](CC(=O)O)NC(=O)CNC(=O)[C@@H]1CCCN1C(=O)[C@H](Cc1ccc(O)cc1)NC(=O)[C@@H](NC(=O)[C@@H]1CCCN1C(=O)[C@H](CCC(=O)O)NC(=O)[C@H](CC(C)C)NC(=O)[C@@H]1CCCN1C(=O)[C@H](C)N)C(C)C)[C@@H](C)O)C(=O)N[C@@H](CC(N)=O)C(=O)N[C@@H](CCSC)C(=O)N[C@@H](CC(C)C)C(=O)N[C@H](C(=O)N[C@@H](CCCNC(=N)N)C(=O)N1CCC[C@H]1C(=O)N[C@@H](CCCNC(=N)N)C(=O)N[C@@H](Cc1ccc(O)cc1)C(N)=O)[C@@H](C)O [PP]
Gs α; fatty Zucker rats
  effect of PP treatment on hepatic Gs α expression: decreased hepatic expression of Gs α to levels similar to that seen in lean rats
Gs α; lean Zucker rats
  effect of PP treatment on hepatic Gs α expression: not altered
Adenylyl cyclase; fatty Zucker rats
  effect of PP treatment on efficacy of glucagon in activating adenylyl cyclase: significant decrease in the efficacy of glucagon
Adenylyl cyclase; lean Zucker rats
  effect of PP treatment on efficacy of glucagon in activating adenylyl cyclase: did not modify the efficacy of glucagon
Adenylyl cyclase; second replicate, PP treated fatty Zucker rats (200 μg/day/kg s.c., five days)
  maximal adenylyl cyclase activation by glucagon: 60.2±1.5 pmol cAMP/min/mg
Glucagon receptor [2]; either phenotype (lean and fatty Zucker rats), PP 200 μg/day/kg s.c. five days
  effect of PP treatment on total glucagon binding sites: failed to alter total glucagon binding sites
Glucagon receptor [2]; liver membranes of fatty Zucker rats treated with PP 200 μg/day/kg s.c. for five days
  Bmax, total glucagon binding sites: 569 ± 45 fmol/mg
Glucagon receptor [3]; fatty Zucker rats treated with PP for five days
  percentage of high affinity glucagon binding sites: 71%
Glucagon receptor [3]; lean Zucker rats treated with PP for five days
  percentage of high affinity glucagon binding sites: 55%
[1]
  labeling of G proteins migrating at 41 kDa, result in words: concentration-dependent increase in labeling
[1]; maximal effect
  maximal increase in AA-[32P]GTP labeling of G proteins migrating at 41 kDa: approximately two-fold
